In ChEMBL document CHEMBL3393059, “Optimisation of in silico derived 2-aminobenzimidazole hits as unprecedented selective kappa opioid receptor agonists” (Bioorg Med Chem Lett, 2015):

Columns and labels:
Format in all cases: ADME, organism-based
Parameters in all cases: dose 30 mg/kg, route oral
[1] = Cmax in mouse at 30 mg/kg, po; details: in vivo
[2] = Half life in mouse at 30 mg/kg, po; details: in vivo
[3] = AUC (0 to time) in mouse at 30 mg/kg, po; details: plasma

SMILES: CN(C(=O)C(c1ccccc1)c1ccccc1)[C@H](CN1CC[C@H](O)C1)c1ccccc1 [ASIMADOLINE]
- Cmax [1]: 507 ng/mL
- half-life [2]: 30 min
- AUC [3]: 493 ng·h/mL
